Measurements from patent publication US20080269106A1, “Methods and Compositions for Diagnosis and Treatment of Disorders Involving Macrophages” (priority 2005, published 2008).
d = 2'-deoxy (DNA); r = 2'-OH (RNA)

Legend:
[1] = biological target: estrogen receptor-α (ERα) (Homo sapiens, UniProt P03372); conditions: cells null for either MEKK1 or TAB2
Description: Wild-type MEKK1, C478A MEKK1 (mutant of ubiquitin ligase activity), or D1369A MEKK1 (mutant of kinase activity) was used to rescue IL-1β-dependent activation of the pS2 promoter by 4-OHT in MEFs from MEKK−/− mice.

androgen receptor (AR) [2] = biological target: T1, androgen receptor (AR) (Homo sapiens, UniProt P10275); test: ARE-dependent lacZ reporter, single cell nuclear microinjection; format: cell-based; conditions: presence of bicalutamide
T1 construct: Nuclear microinjection studies were performed in RWPE1 cells using a Prostate Specific Antigen (PSA) promoter/reporter construct; endogenous in cells; host or cells: RWPE1 prostate cells
T1 sequence (P10275 1-920): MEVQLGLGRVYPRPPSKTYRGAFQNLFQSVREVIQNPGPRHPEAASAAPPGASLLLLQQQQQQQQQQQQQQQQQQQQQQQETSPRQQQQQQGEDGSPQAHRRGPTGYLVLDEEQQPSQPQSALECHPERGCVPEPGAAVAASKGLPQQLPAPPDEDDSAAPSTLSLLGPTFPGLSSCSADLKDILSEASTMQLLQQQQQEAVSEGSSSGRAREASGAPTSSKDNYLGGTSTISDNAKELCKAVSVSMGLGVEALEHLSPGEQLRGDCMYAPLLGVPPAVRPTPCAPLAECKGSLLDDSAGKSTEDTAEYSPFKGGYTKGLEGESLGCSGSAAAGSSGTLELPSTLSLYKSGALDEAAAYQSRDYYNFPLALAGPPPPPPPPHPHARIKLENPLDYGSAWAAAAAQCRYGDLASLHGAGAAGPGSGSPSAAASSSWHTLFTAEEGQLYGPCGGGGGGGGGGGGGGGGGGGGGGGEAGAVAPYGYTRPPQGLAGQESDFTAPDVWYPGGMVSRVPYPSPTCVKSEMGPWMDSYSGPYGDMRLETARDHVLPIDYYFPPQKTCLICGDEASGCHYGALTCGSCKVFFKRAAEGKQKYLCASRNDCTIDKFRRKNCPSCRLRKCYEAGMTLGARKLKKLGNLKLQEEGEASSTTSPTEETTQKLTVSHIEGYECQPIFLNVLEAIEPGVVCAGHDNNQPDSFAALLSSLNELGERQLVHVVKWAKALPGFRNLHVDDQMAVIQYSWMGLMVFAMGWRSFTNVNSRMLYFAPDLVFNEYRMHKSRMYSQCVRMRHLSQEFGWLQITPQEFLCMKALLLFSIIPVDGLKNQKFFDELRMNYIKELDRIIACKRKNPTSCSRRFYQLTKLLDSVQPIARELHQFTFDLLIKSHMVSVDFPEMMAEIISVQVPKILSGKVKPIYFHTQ
Experimental: Specific IgGs against AR, N-CoR, TAB2, HDAC3, HDAC2, HDAC1, Sin3, or MBD3 were used to immunoprecipitate protein-bound DNA fragments. […] The bound material was eluted and divided into several aliquots, and re-immunoprecipitated with antibodies as shown (2nd IP).
Cells were stained with antibodies directed against the N-CoR, and the fluorescence-conjugated secondary antibody was visualized using deconvoluting microscopy. Merged images with nuclear staining with DAPI are shown. […] 5 ng/ml of leptomycin B (LMB), a nuclear export inhibitor, was also used for 30 min followed by treatment with 10 ng/ml of IL-1β.

[3] = test system: RARα fusion proteins (AR-N′/RAR, ER-N′/RAR); test: RARα-dependent reporter with AR-N'/RAR and ER-N'/RAR fusion receptors, single cell microinjection; format: cell-based
BMP7 = test: Semi-quantitative RT-PCR of BMP7 in MCF-7 breast cancer cells; format: cell-based; conditions: MCF-7 cells
Experimental: Semi-quantitative RT-PCR was carried out as described (Zhu et al, 2004). Primers were: […]
(§1) Actin was used as the loading control. […] A BMP7 promoter-controlled LacZ reporter and an ERα expression plasmid were injected into cells. […] Wild-type ERα and Erα (E203A/G204A) were cotransfected with the reporter in 293 cells. […] Primer pair #1 flanks two putative ERE half-sites, and primer pair #2 (control) flanks a region ˜3 kb upstream of #1.
This is particularly relevant in light of the fact that a key aspect of reproductive regulation, blastocyst implantation, involves a local induction of BMP7 in response to inflammatory signals (Monroe et al., 2000; Paria et al., 2001).

androgen receptor (AR) [4] = biological target: T1, androgen receptor (AR); test: PSA promoter reporter, single cell nuclear microinjection in RWPE1 cells; format: cell-based; conditions: for effect on IL-1β-mediated activator function of bicalutamide: 14mer peptide microinjected, PSA promoter- or ARE-dependent reporters
Description: One representative of three independent experiments is shown.

ERα [5] = biological target: T2, ERα (Homo sapiens, UniProt P03372); test: BMP7 promoter-controlled LacZ reporter, single cell nuclear microinjection in Rat-1 cells; format: cell-based; design: expressed in transfected cells; host or cells: Rat-1 cells; conditions: added to E2
T2 sequence (P03372 1-595): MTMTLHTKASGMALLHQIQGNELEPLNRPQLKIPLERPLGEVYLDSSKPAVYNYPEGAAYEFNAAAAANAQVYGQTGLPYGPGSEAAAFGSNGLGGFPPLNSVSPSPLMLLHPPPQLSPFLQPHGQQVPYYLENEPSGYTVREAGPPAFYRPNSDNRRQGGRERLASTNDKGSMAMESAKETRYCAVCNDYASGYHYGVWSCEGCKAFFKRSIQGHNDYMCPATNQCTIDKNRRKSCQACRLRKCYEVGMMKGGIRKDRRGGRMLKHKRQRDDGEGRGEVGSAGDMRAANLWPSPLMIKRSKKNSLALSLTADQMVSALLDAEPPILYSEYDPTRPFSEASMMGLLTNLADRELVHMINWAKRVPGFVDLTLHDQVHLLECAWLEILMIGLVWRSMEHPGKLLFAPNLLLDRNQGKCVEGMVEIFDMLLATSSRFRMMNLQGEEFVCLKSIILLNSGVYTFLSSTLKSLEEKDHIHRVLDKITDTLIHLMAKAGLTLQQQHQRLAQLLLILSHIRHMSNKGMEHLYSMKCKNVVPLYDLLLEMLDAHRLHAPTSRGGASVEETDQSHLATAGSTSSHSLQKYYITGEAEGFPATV
Experimental: as §1

ERα [6] = biological target: T2, ERα; test: Luciferase reporter driven by human BMP7 proximal promoter in 293 cells; format: cell-based; design: expressed in transfected cells; host or cells: 293 cells; conditions: combination of E2 and IL-1β
Experimental: as §1

endogenous TAB2 = biological target: T3, endogenous TAB2 (UniProt Q9NYJ8 1-693); test: 2-step ChIP co-occupancy
T3 construct: Endogenous protein, detected with anti-TAB2 IgG
T3 sequence (looked up): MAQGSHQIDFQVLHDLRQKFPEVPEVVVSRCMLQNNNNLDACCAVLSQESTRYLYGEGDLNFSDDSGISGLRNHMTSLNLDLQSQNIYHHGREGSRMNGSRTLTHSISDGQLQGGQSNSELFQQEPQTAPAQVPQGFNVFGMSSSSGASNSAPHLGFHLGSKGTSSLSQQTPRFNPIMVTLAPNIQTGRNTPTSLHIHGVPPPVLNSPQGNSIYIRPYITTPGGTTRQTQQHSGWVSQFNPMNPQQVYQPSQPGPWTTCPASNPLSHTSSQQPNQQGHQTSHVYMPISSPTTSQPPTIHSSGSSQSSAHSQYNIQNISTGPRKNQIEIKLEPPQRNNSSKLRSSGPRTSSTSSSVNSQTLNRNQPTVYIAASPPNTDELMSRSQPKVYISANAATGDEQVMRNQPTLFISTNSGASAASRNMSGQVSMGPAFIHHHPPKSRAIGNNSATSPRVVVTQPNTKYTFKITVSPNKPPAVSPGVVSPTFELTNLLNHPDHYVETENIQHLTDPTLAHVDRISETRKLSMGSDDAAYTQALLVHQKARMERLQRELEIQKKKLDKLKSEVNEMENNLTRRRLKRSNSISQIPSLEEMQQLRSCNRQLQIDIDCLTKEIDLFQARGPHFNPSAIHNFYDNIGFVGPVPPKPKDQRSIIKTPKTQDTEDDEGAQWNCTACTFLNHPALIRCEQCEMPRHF

4-OH tamoxifen [4-OHT]
IL-1β-dependent conversion to activator of ERα [1]: failed to occur

5′-GCACCGAAGUAUUGUCCAAdTdT-3′ (sense GCACCGAAGUAUUGUCCAATT; antisense UUGGACAAUACUUCGGUGCTT; siRNA; sugars from the 5' end r19 d2, backbone not given here) [N-CoR siRNA]
effect on bicalutamide-dependent repression of ARE reporter (androgen receptor (AR) [2]): switch from repression to activation

C[C@]12CCC(=O)C[C@@H]1CC[C@@H]1[C@@H]2CC[C@]2(C)[C@@H](O)CC[C@@H]12 [DHT, Dihydrotestosterone]
activation of chimeric RARα [3]: neither E2 nor DHT exerted activation effects

C[C@]12CC[C@@H]3c4ccc(O)cc4CC[C@H]3[C@@H]1CC[C@@H]2O [E2, 17-β-estradiol]
activation of chimeric RARα [3]: neither E2 nor DHT exerted activation effects
BMP7 transcript levels (BMP7): decreased levels of BMP7 transcripts

DIASEASTMQAAQQ [mutated AX7AA (SEQ ID NO:26) sequence]
effect on IL-1β-mediated activator function of bicalutamide (androgen receptor (AR) [4]): failed to inhibit induction

DILSEASTMQLLQQ [14mer synthetic peptide encompassing the AR LX7LL motif]
effect on IL-1β-mediated activator function of bicalutamide (androgen receptor (AR) [4]): specifically blocked
effect on macrophage-induced agonistic switch of bicalutamide (androgen receptor (AR) [4]; peptide microinjected into RWPE1 cells pre-treated with TNFα, THP-1 macrophages, PSA promoter-dependent reporter): blocked

IL-1β: human IL-1β from Calbiochem, pro-inflammatory cytokine
expression of hBMP-7 promoter-controlled reporter on addition to E2 (ERα [5]): actively increased expression over the baseline
hBMP7 proximal promoter reporter activity, combination with E2 (ERα [6]): restored the reporter activity to the baseline
effect on E2 inhibition of BMP7 transcripts (BMP7; added to E2): blocked this inhibition

B1: wild-type RARα (receptor, UniProt P10276 1-462, looked up)
chain: MASNSSSCPTPGGGHLNGYPVPPYAFFFPPMLGGLSPPGALTTLQHQLPVSGYSTPSPATIETQSSSSEEIVPSPPSPPPLPRIYKPCFVCQDKSSGYHYGVSACEGCKGFFRRSIQKNMVYTCHRDKNCIINKVTRNRCQYCRLQKCFEVGMSKESVRNDRNKKKKEVPKPECSESYTLTPEVGELIEKVRKAHQETFPALCQLGKYTTNNSSEQRVSLDIDLWDKFSELSTKCIIKTVEFAKQLPGFTTLTIADQITLLKAACLDILILRICTRYTPEQDTMTFSDGLTLNRTQMHNAGFGPLTDLVFAFANQLLPLEMDDAETGLLSAICLICGDRQDLEQPDRVDMLQEPLLEALKVYVRKRRPSRPHMFPKMLMKITDLRSISAKGAERVITLKMEIPGSMPPLIQEMLENSEGLDTLSGQPGGGGRDGGGLAPPPGSCSPSLSPSSNRSSPATHSP
notes: also called retinoic acid receptor
binding result (endogenous TAB2): no binding
